Data reported in US4088752A, “Oral composition for plaque and caries inhibition” (Gaba AG, priority 1974, dated 1978).

Experiments:
Assay type in all cases: in vivo, Osbourne-Mendel rats
[1] = Postmortal rat molar solubility (molar surface dissolution rate); details: per mand: m1 + m2 in 10 ml 0.025 M acetate buffer pH 4, 60 min., 37° C; standard error 5.7
Description: (§1) 0.1 ml of the test solutions were applied once daily during the whole 20-day experimental period in which diet 2000a and tap water were available ad libitum. On day 22 the animals were superinfected twice with Streptococcus mutans OMZ 176. Caries, molar surface dissolution rate and fluoride content were assessed acccording to routine procedures.

[2] = Weight gain of rats during the 20-day experimental period; details: means of 10 animals, standard error 3.4
Description: (§2) Groups of 10 Osbourne-Mendel rats, which are particularly suitable for caries-inhibition studies, were subjected to the following treatments:
(§3) On day 13 the animals with their dams were transferred to stainless-steel cages and fed powdered Nafag diet. The animals were weaned when 22 days old and distributed at random among the treatments.
as §1

[3] = system: Streptococcus mutans OMZ 176; experiment: Rat caries experiment: smooth surface plaque, smooth surface caries and fissure caries after local application of aqueous test solutions; details: for Average number per rat of smooth surface plaque extent (PU) / Average number per rat of advanced dentinal fissure lesions (B) / Average number per rat of smooth surface carious units (E): means of 10 animals; for Average number per rat of smooth surface plaque extent (PU): standard error 0.29; for Average number per rat of advanced dentinal fissure lesions (B): standard error 0.94; for Average number per rat of smooth surface carious units (E): standard error 1.81; for cariostatic effects of sodium fluoride and sodium trimetaphosphate together: smooth surface caries, combination of the two
Description: To examine the effect of the compounds used according to the present invention, a series of animal experiments were carried out. In these tests an aqueous solution of the test compounds was applied locally to determine its action in inhibiting plaque and caries.
as §3, §1

[4] = Fluoride content of maxillary molar surfaces; details: maxillary molars m1 + m2, 15 sec. in 2N hydrochloric acid under agitation; for Fluoride concentration, cumulated layers: first and second cumulated layers, standard error 12.4; for Fluoride concentration, second layer: standard error 10.4; for Fluoride concentration, first layer: standard error 16.6
Description: as §2, §1
Fluoride concentrations in the first, the second and the
first and second cumulated layers (ppm F) in the maxillary
molars (m1 + m2, 15 sec. in 2N hydrochloric acid under

[5] = rats, 20-day experimental period

Molecule | Postmortal rat molar solubility [1] [μgP] | weight gains [2] [g] | Average number per rat of smooth surface plaque extent (PU) ([3]; 20-day experimental period) | Average number per rat of advanced dentinal fissure lesions (B) ([3]; 20-day experimental period) | Average number per rat of smooth surface carious units (E) ([3]; 20-day experimental period) | Smooth surface caries (statement) [3, 5] | cariostatic effects of sodium fluoride and sodium trimetaphosphate together [3] | Fluoride concentration, cumulated layers [4] [ppm F] | Fluoride concentration, second layer [4] [ppm F] | Fluoride concentration, first layer [4] [ppm F] | further results
N,N,N'-tris-(2-hydroxyethyl)-N'-octadecyl-1,3-diaminopropanediorthophosphate [Treatment 8] | 121 | – | – | – | – | – | – | – | – | – | –
O=P1([O-])OP(=O)([O-])OP(=O)([O-])O1.[Na+].[Na+].[Na+] [Treatment 4, sodium trimetaphosphate] | – | 60 | 2.7 | 6.1 | 10.1 | effective | additive | – | – | – | –
N,N,N'-tris-(2-hydroxyethyl)-N'-octadecyl-1,3-diaminopropanemonohydrofluoride monoorthophosphate [Treatment 9] | 130 | – | – | – | – | – | – | 74 | 53 | 92 | –
N,N,N'-tris-(7-hydroxyethyl)-N'-octadecyl-1,3-diaminopropanepyrophosphate [Example 7] | – | – | – | – | – | – | – | 143 | 94 | 187 | –
N-(2-hydroxyethyl)-2-heptadecen-9-yl-imidazoline orthophosphate [Example 6] | – | – | – | – | – | – | – | – | – | – | Smooth surface plaque, average extent (statement) [3, 5]: significantly lower (PF <0.001)
sodium fluoride [Treatment 3] | – | 65 | 2.5 | 9.8 | 9.0 | effective | additive | – | – | – | –
